Columns and labels:
[1] = Absorption of febuxostat from various regions of the gastro-intestinal tract in rats; format: in vivo, rat
Text: The pharmacokinetic data obtained in the clinical trial referenced above was subsequently used to develop estimated plasma profiles for various febuxostat formulations, including extended release matrix tablets, two-pulse febuxostat formulations, and three-pulse febuxostat formulations. The estimated extended release formulation data was based on a matrix formulation incorporating one or more polymers, and the estimated two-pulse and three-pulse formulation data was based on a formulation incorporating two or more types of beads with differing release profiles. This information and methodology is discussed in Example 2. Additionally, as part of the development process for an extended release febuxostat formulation, various sites of absorption were investigated to determine the optimal physiologic sites of drug absorption for an extended release febuxostat formulation. In early pre-clinical studies, absorption of febuxostat from various regions of the gastro-intestinal tract was studied in rats. […] To guide development of a dosage form that provided the desired plasma concentration-time profile, a site of absorption study was conducted in humans.

[2] = Bioavailability of febuxostat released in various locations of the gastrointestinal tract (site of absorption study); format: in vivo, human; conditions: humans
Experimental: Subjects all received regimens in a crossover fashion according to a randomization schedule. Extra periods (up to 2 per subject) were added where subject dose release issues required repeating a regimen. There was a washout interval of at least 7 days between the dose in a period and the next dose in the subsequent period.
The method utilizes protein precipitation with acetonitrile of a 100-μL aliquot of plasma, with a lower limit of detection of 10.0 ng/mL.
Pharmacokinetic parameters for febuxostat were estimated using standard noncompartmental methods. Calculations were performed using the WinNonlin Pro Version 5.2 (Mountain View, Calif., USA). The descriptive statistics for pharmacokinetic parameter estimates were computed. […] The subjects who had improper capsule release were allowed to repeat up to two extra periods after their scheduled sequence had ended. For ANOVA purposes, the missing or incomplete data from the periods with improper capsule release was replaced by the data from the corresponding repeated periods using the originally planned period for that regimen.

albumin = target: T1, albumin (Homo sapiens, UniProt P02768); assay: Binding to albumin in the blood; format: in vitro ADME
T1 construct: from tissue; host or cells: blood / plasma
T1 sequence (P02768 25-609): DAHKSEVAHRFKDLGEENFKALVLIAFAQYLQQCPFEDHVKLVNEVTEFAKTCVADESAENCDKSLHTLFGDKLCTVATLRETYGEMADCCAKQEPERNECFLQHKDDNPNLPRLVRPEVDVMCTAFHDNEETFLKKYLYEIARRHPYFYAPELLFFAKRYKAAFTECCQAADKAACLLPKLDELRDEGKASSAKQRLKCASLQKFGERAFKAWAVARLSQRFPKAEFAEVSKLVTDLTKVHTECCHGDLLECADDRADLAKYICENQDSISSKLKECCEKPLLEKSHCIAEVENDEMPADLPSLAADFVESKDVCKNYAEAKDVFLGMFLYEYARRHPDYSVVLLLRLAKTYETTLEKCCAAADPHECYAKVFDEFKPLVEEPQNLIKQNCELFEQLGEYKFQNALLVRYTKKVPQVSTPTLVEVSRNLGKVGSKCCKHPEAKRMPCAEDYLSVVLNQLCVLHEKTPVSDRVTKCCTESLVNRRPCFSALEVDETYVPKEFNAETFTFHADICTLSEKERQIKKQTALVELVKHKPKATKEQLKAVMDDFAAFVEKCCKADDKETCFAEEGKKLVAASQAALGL

In the case of `Cc1nc(-c2ccc(OCC(C)C)c(C#N)c2)sc1C(=O)O` [Febuxostat, 2-[3-cyano-4-(2-methylpropoxy)phenyl]-4-methylthiazole-5-carboxylic acid], the “absorption from the colonic region” value [1] is reported as “very poor”, the “absorption in the colon compared to immediate release, proximal intestine and distal intestine” value [2] is reported as “approximately 40%” and the “bound to albumin in the blood” value (albumin) is reported as roughly 99.3%.

Source: patent US9248119B2, “Modified release dosage forms of xanthine oxidoreductase inhibitor or xanthine oxidase inhibitors” (Takeda Pharmaceuticals U.S.A., Inc., priority 2010, dated 2016)
